We go through one compound from patent US20250387355A1 (SpringWorks Therapeutics Inc., priority 2024, published 2025).

The test system of the experiment is NF1-associated plexiform neurofibromas (PNs). The experiment in a line: Phase 2b trial of mirdametinib: efficacy by volumetric MRI per REiNS criteria (BICR). Type of experiment: in vivo, human. The settings on record: for DoR ≥12 months, %: responders, first DoR line (r12). On the procedure: Study treatment was administered orally at a twice daily (BID) dose specified in the table below. Dosing was on a 28-day Cycle (4-week course) with a 3 week on/1 week off schedule. The treatment period will last for up to 24 Cycles followed by a 30-day Safety Follow-Up period.
A partial response was defined as PN decrease ≥20% compared to baseline using centrally read MRI volumetric analysis.
The major efficacy outcome measure was confirmed objective response rate (ORR), defined as the percentage of patients with complete response (disappearance of the target PN) or confirmed partial response (≥20% reduction in PN volume confirmed at a subsequent tumor assessment within 2-6 months during the 24-cycle treatment phase). Responses were assessed by blinded independent central review (BICR) using volumetric magnetic resonance imaging (MRI) analysis per Response Evaluation in Neurofibromatosis and Schwannomatosis (REiNS) criteria. A secondary efficacy objective was to determine the duration of response for patients who achieved a confirmed objective response.

For `O=C(NOC[C@H](O)CO)c1ccc(F)c(F)c1Nc1ccc(I)cc1F` (single isomer, unassigned) [mirdametinib], the “Confirmed Complete Response, n (%)” value worked out at 0 (Adult (N = 58)) and 0 (Pediatric (N = 56)). Moreover, the “Confirmed Objective Response Rate per REINS criteria by BICR, (%)” value is “(41) %” (Adult (N = 58)) and “(52) %” (Pediatric (N = 56)). For the same compound, the “Confirmed Partial Response, (%)” value is, setting by setting: (Adult (N = 58)) “(41) %”; (Pediatric (N = 56)) “(52) %”. In addition, the “DoR ≥12 months, %” value by setting is: (Adult) “(88%)”; (Pediatric) “(90%)”.
